Experimental data reported in patent US8765765B2, “Metabolites of (thio) carbamoyl-cyclohexane derivatives” (Richter Gedeon Nyrt., priority 2007, dated 2014).

Tests used:
[1] = target: T1, rat recombinant D3 receptors (expressed in Sf9 cells) (Rattus norvegicus, UniProt P19020); assay: D3 receptor binding, [3H]-spiperone; settings: rat recombinant D3, [3H]-spiperone 0.85 nM; read-out: rD3 Ki
T1 construct: purchased Packard BioScience, BioSignal Packard Inc. 6110139; host or cells: Sf9 cells
Protocol: Binding assays were carried out on rat recombinant D3 receptors (expressed in Sf9 cells) according to the supplier instructions (Packard BioScience, BioSignal Packard Inc. Cat. No. 6110139, Technical Data Sheet) using [^3H]-spiperone (0.85 nM) as ligand and haloperidol (10 μM) for determination of non-specific binding.

[2] = target: T2, D2 receptor (rat brain striatal membrane preparation) (Rattus norvegicus, UniProt P61169); assay: D2 receptor binding, [3H]-spiperone; settings: rat brain striatal membranes, [3H]-spiperone 0.6 nM; read-out: rD2 Ki
T2 construct: on rat brain striatal membrane preparation; from tissue; host or cells: rat brain striatum membranes
T2 sequence (P61169 whole entry): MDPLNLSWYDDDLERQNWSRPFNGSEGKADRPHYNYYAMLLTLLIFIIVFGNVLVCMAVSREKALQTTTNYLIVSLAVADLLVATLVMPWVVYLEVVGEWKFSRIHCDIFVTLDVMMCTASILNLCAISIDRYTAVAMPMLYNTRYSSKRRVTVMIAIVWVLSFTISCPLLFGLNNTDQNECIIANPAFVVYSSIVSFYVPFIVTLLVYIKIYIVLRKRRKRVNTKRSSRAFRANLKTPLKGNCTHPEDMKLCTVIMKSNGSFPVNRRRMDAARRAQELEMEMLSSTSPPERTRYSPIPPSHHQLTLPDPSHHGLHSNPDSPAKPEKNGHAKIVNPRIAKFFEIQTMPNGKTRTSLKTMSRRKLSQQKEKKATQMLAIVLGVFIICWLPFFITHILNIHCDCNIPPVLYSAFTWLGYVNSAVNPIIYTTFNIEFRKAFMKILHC
Protocol: D2 receptor binding assay was carried out as described by Creese et al., European Journal of Pharmacology, 60, 55-66, 1979) on rat brain striatal membrane preparation using [^3H]-spiperone (0.6 nM) as ligand. The non-specific binding was determined in the presence of 1 μM (+)-butaclamol.

[3] = target: Alpha-1 receptor (rat brain cortical membrane preparation); assay: Alpha-1 receptor binding, [3H]-prasosin; settings: rat brain cortical membranes, [3H]-prasosin 0.5 nM
Protocol: 3. Alpha-1 Receptor Binding
Alpha-1 receptor binding study was performed according to the method described by Greengrass and Bremmer (European Journal of Pharmacology 55:323-326, 1979) on rat brain cortical membrane preparation using [^3H]-prasosin (0.5 nM) as ligand. The non-specific binding was determined in the presence of 10 μM phentolamine.

dopamine D3/D2 receptor = settings: background statement; cited from earlier work
5-HT2C = 5-HT2C (Homo sapiens, UniProt P28335); settings: background statement; cited from earlier work
5-HT2C, sequence (P28335 33-458, species assumed): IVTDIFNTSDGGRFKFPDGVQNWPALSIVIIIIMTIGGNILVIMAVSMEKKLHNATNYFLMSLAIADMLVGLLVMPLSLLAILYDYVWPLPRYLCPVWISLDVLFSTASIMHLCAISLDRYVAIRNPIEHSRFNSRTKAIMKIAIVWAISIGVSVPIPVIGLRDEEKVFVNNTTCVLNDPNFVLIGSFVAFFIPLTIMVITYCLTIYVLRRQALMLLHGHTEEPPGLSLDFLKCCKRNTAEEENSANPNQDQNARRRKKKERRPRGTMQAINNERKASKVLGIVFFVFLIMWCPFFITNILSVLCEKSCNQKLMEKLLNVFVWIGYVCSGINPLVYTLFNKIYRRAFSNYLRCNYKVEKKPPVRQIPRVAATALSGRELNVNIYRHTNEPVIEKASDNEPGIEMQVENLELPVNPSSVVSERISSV

histamine H1 = histamine H1 (Homo sapiens, UniProt P35367); settings: background statement; cited from earlier work
histamine H1, sequence (P35367 whole entry): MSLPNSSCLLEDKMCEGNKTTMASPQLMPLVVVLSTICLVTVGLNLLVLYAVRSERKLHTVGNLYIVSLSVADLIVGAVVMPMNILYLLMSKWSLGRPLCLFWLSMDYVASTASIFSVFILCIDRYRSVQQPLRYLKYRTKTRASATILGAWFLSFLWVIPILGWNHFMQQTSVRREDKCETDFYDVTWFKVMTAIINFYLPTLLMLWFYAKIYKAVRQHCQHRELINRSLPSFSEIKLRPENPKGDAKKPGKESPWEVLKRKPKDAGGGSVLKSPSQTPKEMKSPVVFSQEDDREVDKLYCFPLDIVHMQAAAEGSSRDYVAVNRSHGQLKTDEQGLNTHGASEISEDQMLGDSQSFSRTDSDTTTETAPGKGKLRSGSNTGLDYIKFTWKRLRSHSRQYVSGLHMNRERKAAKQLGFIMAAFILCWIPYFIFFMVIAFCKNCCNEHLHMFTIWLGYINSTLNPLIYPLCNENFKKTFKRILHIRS

[4] = system: adrenergic receptor sites; settings: background statement; cited from earlier work

T1 sequence (P19020 whole entry): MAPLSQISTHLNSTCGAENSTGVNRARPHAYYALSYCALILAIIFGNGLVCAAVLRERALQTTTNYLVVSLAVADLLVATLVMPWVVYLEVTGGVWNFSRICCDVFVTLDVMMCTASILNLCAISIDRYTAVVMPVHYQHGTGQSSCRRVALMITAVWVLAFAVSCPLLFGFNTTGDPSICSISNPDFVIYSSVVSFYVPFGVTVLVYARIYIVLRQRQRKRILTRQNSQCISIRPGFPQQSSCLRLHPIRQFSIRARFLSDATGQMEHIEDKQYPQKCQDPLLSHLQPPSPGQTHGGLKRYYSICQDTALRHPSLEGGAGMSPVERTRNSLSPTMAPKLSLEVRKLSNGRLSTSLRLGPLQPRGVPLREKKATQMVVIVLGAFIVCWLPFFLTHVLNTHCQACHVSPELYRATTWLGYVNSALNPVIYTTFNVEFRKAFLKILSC

Ki [1] | Ki [2] | Ki [3] | SMILES | D3 receptor antagonism relative to D2 receptor antagonism (dopamine D3/D2 receptor) | potency at 5-HT2C receptor site (5-HT2C) | potency at histamine H1 receptor site (histamine H1) | potency at adrenergic receptor sites [4]
0.26 nM | 8.4 nM | > 1000 nM | NC(=O)N[C@H]1CC[C@H](CCN2CCN(c3ccc(O)c(Cl)c3Cl)CC2)CC1 [Compound A, Trans-1-{4-[2-[4-(2,3-dichloro-4-hydroxy-phenyl)-piperazin-1-yl]-ethyl]-cyclohexyl}-urea] |  |  |  | 
 |  |  | CN(C)C(=O)NC1CCC(CCN2CCN(c3cccc(Cl)c3Cl)CC2)CC1.Cl (stereo not drawn) [trans-4-{2-[4-(2,3-dichlorophenyl)-piperazin-1-yl]-ethyl}-N,N-dimethylcarbamoyl-cyclohexylamine hydrochloride] | about one order of magnitude greater | low potency | low potency | low potency
0.37 nM | 80.5 nM | > 1000 nM | CN(C)C(=O)N[C@H]1CC[C@H](CCN2CCN(c3ccc(O)c(Cl)c3Cl)CC2)CC1 [Compound C, Trans-1-{4-[2-[4-(2,3-dichloro-4-hydroxy-phenyl)-piperazin-1-yl]-ethyl]-cyclohexyl}-3,3-dimethyl-urea] |  |  |  | 
> 10 nM | > 100 nM | > 1000 nM | CN(C)C(=O)N[C@H]1CC[C@H](CC[N+]2([O-])CCN(c3cccc(Cl)c3Cl)CC2)CC1 [Compound D, Trans-1-{4-[2-[4-(2,3-dichlorophenyl)-1-oxo-piperazin-1-yl]-ethyl]-cyclohexyl}-3,3-dimethyl-urea] |  |  |  | 
0.24 nM | 2.49 nM | > 1000 nM | CNC(=O)N[C@H]1CC[C@H](CCN2CCN(c3ccc(O)c(Cl)c3Cl)CC2)CC1 [Compound B, Trans-1-{4-[2-[4-(2,3-dichloro-4-hydroxy-phenyl)-piperazin-1-yl]-ethyl]-cyclohexyl}-3-methyl-urea] |  |  |  | 
